From PubChem BioAssay AID1259420 (Broad Institute, 2018) come the findings set out here.

In this assay the test system is Toxoplasma gondii growth in host cells, no IFN-gamma. The experiment in a line: compound activity on host-cell Toxoplasma growth – dose response (AID 1259420).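 Further: host cells were HeLa; final incubation lasted 72 hours.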

“And” between values parts separate entries of the source, which are not always exact repeats. Identical values can stand only once. Inconclusive results are not listed. The source made the active and inactive calls. How the calls were made is not given here.

In general, AC50 refers to the midpoint of the concentration-response curve, whichever way the signal moves.

In the case of `COc1ccccc1NC(=O)N1CC(=O)N2[C@H](CO)[C@H](c3ccc(C#CC(C)C)cc3)[C@H]2C1`, the AC50 was > 39 µM (inactive). The figure for `COc1cccc(S(=O)(=O)N2CCCCN3[C@H](CO)[C@H](c4ccc(C#CCC(C)C)cc4)[C@H]3C2)c1` is 7.96 µM and 10.6 µM. The figure for `COc1cccc(S(=O)(=O)N2CCCCN3[C@H](CO)[C@@H](c4ccc(C#CCC(C)C)cc4)[C@@H]3C2)c1` is 19 µM. The value for `N#Cc1cccc(-c2ccc3c(c2)[C@H]2[C@H](CCN2Cc2ccc4c(c2)OCO4)[C@@H](CO)N3)c1` was 15 µM; that for `CC(C)C#Cc1ccc([C@H]2[C@@H](C#N)N(C(=O)c3cccc(F)c3)[C@@H]2CO)cc1` was 14.1 µM. With `COc1ccc(-c2ccc(C3[C@@H]4CN(C(=O)c5ccc(F)cc5)C[C@H]3N4)cc2)cc1` (stereo partly specified), the AC50 was 24.4 µM and 13.3 µM. The figure for `N#Cc1cccc(-c2ccc3c(c2)[C@H]2[C@H](CCN2C(=O)c2ccccc2F)[C@@H](CO)N3)c1` is 15.1 µM.

With `CCN1C[C@@H](COC)[C@]2(CCN(C(=O)COc3ccccc3C)C2)C1`, the AC50 is > 39 µM (inactive).

As to `CCc1cc(C(=O)Nc2ccc(C)cc2-c2cc(C)[nH]n2)c2c(C)noc2n1`, the concentration at half-maximal activity (AC50) was 18.2 µM. The value for `COc1ccccc1C1CN(Cc2cccc(O)c2)Cc2ccccc2O1` (stereo unspecified) was 22.8 µM. The value for `O=C(Cc1ccccc1)N1CC(=O)N2[C@H](C1)[C@@H](c1ccc(-c3ccc(F)cc3)cc1)[C@@H]2CO` was 24.7 µM. The value for `CCOC(=O)N1CCC(N[C@H]2COC[C@@H]2OCC)CC1` was 36.8 µM; that for `C/C=C/c1ccc([C@H]2[C@@H](CO)N3CCCCN(S(=O)(=O)c4ccc(OC)cc4)C[C@@H]23)cc1` was 32.2 µM; that for `O=c1[nH]c(=O)n([C@H]2C[C@H](O)[C@@H](CO)O2)cc1F` was 0.346 µM. As to `Cc1cnc(N2CCC3(CCC(CC(=O)N4CC=CC4)CC3)CC2)nc1`, the concentration at half-maximal activity (AC50) is 22.6 µM. Regarding `Cc1ccc2c(c1)c(Cn1cc(-c3sccc3C)nn1)nn2C`, the AC50 is 31.1 µM and 25.4 µM. As to `COc1ccccc1CN1CC[C@@H]2[C@H]1c1cc(-c3cccc(C(=O)N(C)C)c3)ccc1N[C@@H]2CO`, the AC50 is 20.2 µM. The value for `COc1ccccc1NC(=O)N1CCCCN2[C@H](CO)[C@@H](c3ccc(-c4cccc(C#N)c4)cc3)[C@@H]2C1` was 16.4 µM; that for `Cc1cccc(-c2nc(CN(c3ccccc3)S(=O)(=O)c3ccccc3)c(C)o2)c1` was 17.4 µM. For `C[C@@H]1CN([C@@H](C)CO)C(=O)Cc2cc(NC(=O)C3CCCCC3)ccc2O[C@@H]1CN(C)Cc1ccc(Cl)c(Cl)c1`, the AC50 is 13.9 µM. The value for `Cc1ccc(S(=O)(=O)Nc2ccc3c(c2)C(=O)N([C@@H](C)CO)C[C@@H](C)[C@H](CN(C)Cc2ccc(C(F)(F)F)cc2)O3)cc1` was > 20 µM (inactive); that for `CN1C(=O)c2cc(NC(=O)Cc3cccs3)ccc2OC[C@H]2O[C@@H](CC(=O)NCc3ccc(-c4ccccc4)cc3)CC[C@@H]21` was 20 µM and > 39 µM (inactive); that for `Cc1cnn(C(C)C(=O)N2CCc3[nH]nc(-c4ccc(F)c(F)c4)c3C2)c1` (stereo unspecified) was > 39 µM (inactive). As for `COc1cccc(S(=O)(=O)N2CC[C@@H]3[C@H](CO)Nc4ccc(C5=CCCCC5)cc4[C@@H]32)c1`, the concentration at half-maximal activity (AC50) is 14.1 µM. The figure for `Cc1ccc(Nc2nc(N)nc(CN3CCc4ccccc4C3)n2)cc1` is > 10 µM (inactive); for `O=C1CNC[C@H]2[C@@H](c3ccc(Br)cc3)[C@H](CO)N12` it is 35.9 µM. Turning to `Cc1ccn(CCNc2nccc(-c3c(C)nn(C)c3C)n2)n1`, the AC50 was > 39 µM (inactive). The figure for `COc1cccc(-c2ccc3c(c2)[C@@H]2[C@@H](CCN2S(=O)(=O)c2ccccc2F)[C@@H](CO)N3)c1` is 16 µM; for `O=C(C[C@H]1CC[C@H]2[C@@H](COC[C@H](O)CN2Cc2ccc(Oc3ccccc3)cc2)O1)N1CCN(c2ccccc2)CC1` it is 27.6 µM; for `O=C(NC1CCCC1)[C@H]1[C@H](CO)[C@H]2Cn3c(ccc(C4=CCCCC4)c3=O)[C@@H]1N2CC1CC1` it is > 39 µM (inactive). The figure for `COc1ccc(-c2cnc3n2CCNC32CCN(C(=O)N3CCOCC3)CC2)cc1` is > 39 µM (inactive); for `O=C(Cc1ccccc1)N1CC(=O)N2[C@H](CO)[C@@H](c3ccc(-c4ccc(F)cc4)cc3)[C@@H]2C1` it is 19.2 µM; for `C[C@H](CO)N1C[C@H](C)[C@H](CN(C)C(=O)Nc2ccc(C(F)(F)F)cc2)Oc2c(NC(=O)c3ccc(-c4nccs4)cc3)cccc2C1=O` it is 9.48 µM. The value for `CCc1cnc(N2[C@H](C#N)[C@@H](c3ccc(C#Cc4ccccc4F)cc3)[C@@H]2CO)s1` was 16.3 µM. As for `CC(C)CC#Cc1ccc([C@@H]2[C@@H](CO)N3C(=O)CN(C(=O)c4cccc(F)c4)C[C@@H]23)cc1`, the half-maximal activity concentration (AC50) was 16.4 µM and 13.5 µM. The value for `CCCNC(=O)c1cc(-c2cnc(NCc3ccccc3)nc2)cn1C` was 15.1 µM. The value for `CCc1cnc(N2[C@@H](C#N)[C@@H](c3ccc(C4=CCCCC4)cc3)[C@@H]2CO)s1` was > 20 µM (inactive). The figure for `O=S(=O)(c1cccs1)N1CCCCN2[C@H](CO)[C@H](c3ccc(/C=C/c4ccccc4)cc3)[C@@H]2C1` is 29 µM; for `Oc1[nH]c2ccccc2c1N=Nc1nc(Nc2ccccc2)nc(N2CCOCC2)n1` it is 16.9 µM; for `COc1cccc(S(=O)(=O)N2CCCCN3[C@H](CO)[C@H](c4ccc(C#CC5CC5)cc4)[C@H]3C2)c1` it is 16.8 µM and 17 µM. As to `O=C(c1cnccn1)N1CC(=O)N2[C@H](CO)[C@@H](c3ccc(-c4cccc(F)c4)cc3)[C@@H]2C1`, the AC50 is 20 µM.

In the case of `O=S(=O)(c1ccccc1F)N1CC[C@@H]2[C@@H](CO)Nc3ccc(C4=CCCCC4)cc3[C@@H]21`, the AC50 is 11.8 µM.

For `COc1ccc(-c2nc3c(s2)CN(S(=O)(=O)c2cc(C)cc(C)c2)CC3)cc1`, the AC50 was 5.99 µM.

Consider `CCCNC(=O)N1[C@H](C#N)[C@H](c2ccc(-c3ccccc3F)cc2)[C@H]1CO`, for which the concentration at half-maximal activity (AC50) is 11.3 µM. The figure for `CC(C)NC(=O)N1CC[C@@H]2[C@H]1c1cc(-c3ccc(F)cc3)ccc1N(C)[C@@H]2CO` is > 20 µM (inactive); for `COc1ccccc1NC(=O)N1C[C@H](O)COC[C@@H]2O[C@H](CC(=O)N3CCC(Cc4ccccc4)CC3)CC[C@H]21` it is 37.7 µM. The figure for `COc1ccc(S(=O)(=O)N(C)C[C@H]2Oc3c(NC(=O)c4nc5ccccc5s4)cccc3C(=O)N([C@@H](C)CO)C[C@@H]2C)cc1` is 11.3 µM and 1.88 µM; for `C/C=C/c1ccc(C2[C@H]3CNC[C@@H]2N3Cc2cc(F)ccc2F)cc1` (stereo partly specified) it is 11.4 µM; for `CCCc1ccc(S(=O)(=O)N2CCC[C@@H]2C(=O)NCCc2csc(-c3ccccc3)n2)cc1` it is 18.7 µM.

For `CC(C)CC#Cc1ccc([C@@H]2[C@@H](CO)N3CCCCN(C(=O)Nc4ccccc4)C[C@@H]23)cc1`, the AC50 was 23.7 µM.

In the case of `CN1c2ccc(-c3ccc(C#N)cc3)cc2[C@@H]2[C@@H](CCN2S(=O)(=O)c2ccc(F)cc2)[C@@H]1CO`, the half-maximal activity concentration (AC50) is 13 µM. The value for `COc1cccc(S(=O)(=O)N2CCCCN3[C@H](CO)[C@@H](c4ccc(C#CCC(C)C)cc4)[C@H]3C2)c1` was 12.1 µM and 13.6 µM and 21.9 µM; that for `C=CCN1C(=O)COC2(CCN(Cc3ccc(C)s3)CC2)C1C` (stereo unspecified) was > 39 µM (inactive); that for `COc1cccc(S(=O)(=O)N2CCCCN3[C@@H](CO)[C@@H](c4ccc(C#CCC(C)C)cc4)[C@@H]3C2)c1` was 12.1 µM and 10.1 µM. For `N#Cc1cccc(-c2ccc(C3[C@@H]4CN(Cc5ccccc5)C[C@H]3N4)cc2)c1` (stereo partly specified), the concentration at half-maximal activity (AC50) was 13.1 µM. With `Cc1nc2c(cnn2-c2ccccc2)c(=O)n1-c1cccc2ccccc12`, the AC50 is 10.9 µM. The value for `CCCCCCCCCCCCCCCC[n+]1ccccc1` was 6.86 µM.

For the compound `O=C(O)CN1C[C@H]2c3ccccc3C(OCC3CC3)[C@@H]2C1` (stereo partly specified), the AC50 was > 39 µM (inactive). Consider `COc1ccc(-c2nc(Nc3ccc(CN4CCCCC4)cc3)c3ccccc3n2)cc1`, for which the concentration at half-maximal activity (AC50) was 18.5 µM. The value for `C/C=C/c1ccc([C@H]2[C@@H](C#N)N(C(=O)NC3CCCCC3)[C@H]2CO)cc1` was 20.9 µM; that for `COc1cccc(CN2CCCCN3[C@@H](CO)[C@@H](c4ccc(-c5ccccc5OC)cc4)[C@@H]3C2)c1` was 15.7 µM. The value for `COc1cc([C@@H]2c3cc4c(cc3C(OC3O[C@@H]5COC(C)O[C@H]5[C@H](O)[C@H]3O)C3COC(=O)[C@@H]32)OCO4)cc(OC)c1O` (stereo partly specified) was 23.5 µM; that for `N#C[C@@H]1[C@H](c2ccc(-c3cccc(F)c3)cc2)[C@H](CO)N1C(=O)NC1CCCC1` was 36 µM and 24 µM; that for `O=C(c1ccc(F)cc1)N1CC(=O)N2[C@@H](CO)[C@H](c3ccc(C#CCC4CCCC4)cc3)[C@@H]2C1` was 18.6 µM and 22.6 µM. The value for `O=C(NCc1cccnc1)C1CC2CN(Cc3cccc(Cl)c3)CC1O2` (stereo unspecified) was 4.73 µM; that for `CN(C)C(=O)c1ccc(-c2ccc([C@H]3[C@@H](CO)N4C(=O)CN(C(=O)CC5CC5)C[C@@H]34)cc2)cc1` was > 39 µM (inactive). Consider `CC(C)C#Cc1ccc([C@@H]2[C@@H](CO)N(C(=O)c3cccc(F)c3)[C@H]2C#N)cc1`, for which the AC50 is > 20 µM (inactive). The figure for `COc1cccc(-c2nc3c(s2)CN(S(=O)(=O)c2cc(C)ccc2C)CC3)c1` is 7.12 µM. The value for `COc1cccc(S(=O)(=O)N2CCCCN3[C@H](C2)[C@H](c2ccc(C#CCC(C)C)cc2)[C@@H]3CO)c1` was 11.9 µM and 15.5 µM; that for `COc1ccccc1CN1CC[C@@H]2[C@H](CO)Nc3ccc(-c4cccc(C(=O)N(C)C)c4)cc3[C@@H]21` was 13.6 µM. The figure for `C[C@H](CO)N1C[C@H](C)[C@H](CN(C)C(=O)c2cc(Cl)cc(Cl)c2)OCc2ccccc2-c2c(n(C)c3ccccc23)C1=O` is 15.3 µM.

Regarding `COc1cccc(CNC(=O)c2cc3c(s2)CCN3C(=O)c2ccc(F)cc2)c1`, the half-maximal activity concentration (AC50) is 2.74 µM. The value for `COCCN1CCc2c(cnc(-c3cccnc3)c2C(=O)O)C1` was > 39 µM (inactive); that for `O=C(Nc1ccc2c(c1)OCO2)N1C[C@@H]2N[C@H](C1)C2c1ccc(C=Cc2ccccc2)cc1` (stereo partly specified) was 11.6 µM and 8.75 µM; that for `CN1CCN(C(=O)c2nn(C)c3c2CCN(S(C)(=O)=O)C3)CC1` was > 39 µM (inactive).

For the compound `N#Cc1cccc(C(=O)N2CCC3C2CC(=O)N3Cc2ccncc2)c1` (stereo unspecified), the AC50 was > 20 µM (inactive).
